ChEMBL document CHEMBL4043081, “Do spiroindolines have the potential to replace vesamicol as lead compound for the development of radioligands targeting the vesicular acetylcholine transporter?” (Bioorg Med Chem, 2017)
Calls of active or inactive are those of the source. The calls are words filed in the database; no cut-off is given here.

Experiments:
[1] = target: T1, Sigma intracellular receptor 2 (Rattus norvegicus, UniProt Q5U3Y7); assay: Displacement of [3H]pentazocine from sigma2 receptor in Sprague-Dawley rat liver membranes incubated for 120 mins by liquid scintillation counting; type: cell membranes, Membrane
T1 sequence (Q5U3Y7 whole entry): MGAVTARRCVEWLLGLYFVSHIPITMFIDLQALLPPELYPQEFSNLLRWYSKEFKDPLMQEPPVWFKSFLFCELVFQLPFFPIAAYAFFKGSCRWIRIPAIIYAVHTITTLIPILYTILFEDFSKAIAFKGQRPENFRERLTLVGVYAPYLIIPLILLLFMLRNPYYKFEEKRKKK

[2] = target: Sigma non-opioid intracellular receptor 1 (Rattus norvegicus, UniProt Q9R0C9); assay: Displacement of [3H]pentazocine from sigma1 receptor in Sprague-Dawley rat cortex membranes incubated for 120 mins by liquid scintillation counting; type: cell membranes
Sigma non-opioid intracellular receptor 1, sequence (Q9R0C9 whole entry): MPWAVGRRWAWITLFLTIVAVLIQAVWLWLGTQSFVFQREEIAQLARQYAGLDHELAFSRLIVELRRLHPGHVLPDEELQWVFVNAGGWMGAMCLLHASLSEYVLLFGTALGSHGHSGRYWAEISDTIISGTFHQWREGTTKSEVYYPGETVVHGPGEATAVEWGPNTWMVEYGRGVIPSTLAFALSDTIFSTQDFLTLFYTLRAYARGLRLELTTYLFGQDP

[3] = target: T2, Vesicular acetylcholine transporter (Rattus norvegicus, UniProt Q62666); assay: Displacement of [3H]vesamicol from rat VAChT expressed in rat PC12 cell membranes incubated for 120 mins by liquid scintillation counting
T2 sequence (Q62666 whole entry): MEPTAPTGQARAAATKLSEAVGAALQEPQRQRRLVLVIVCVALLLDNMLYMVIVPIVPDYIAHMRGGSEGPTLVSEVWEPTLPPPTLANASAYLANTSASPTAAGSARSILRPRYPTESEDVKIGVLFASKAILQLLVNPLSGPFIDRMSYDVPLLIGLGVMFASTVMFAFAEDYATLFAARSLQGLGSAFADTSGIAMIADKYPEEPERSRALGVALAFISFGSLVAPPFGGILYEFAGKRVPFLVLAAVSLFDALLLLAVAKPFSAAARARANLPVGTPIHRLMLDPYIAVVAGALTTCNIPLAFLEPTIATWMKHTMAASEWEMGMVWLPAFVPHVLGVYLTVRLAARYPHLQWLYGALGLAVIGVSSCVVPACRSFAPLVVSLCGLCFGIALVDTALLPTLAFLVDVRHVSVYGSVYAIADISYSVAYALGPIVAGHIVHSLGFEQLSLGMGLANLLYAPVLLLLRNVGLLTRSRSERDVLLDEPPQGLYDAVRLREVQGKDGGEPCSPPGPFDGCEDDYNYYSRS

[4] = target: T3, Vesicular acetylcholine transporter (Rattus norvegicus) (UniProt Q62666); assay: Binding affinity to rat VAChT expressed in rat PC12 cell membranes assessed as induction of rightward shift of vesamicol binding curves at 100 and 100 nM incubated for 120 mins by liquid scintillation counting based [3H]vesamicol binding assay
T3 sequence (whole entry): T2 sequence (Q62666 whole entry)

| Structure (SMILES) | Ki [1] | Ki [2] | Ki [3] | Activity [4] |
| --- | --- | --- | --- | --- |
| O=C(c1ccnc(F)c1)N1CC2(CCN(C/C=C/c3ccc(Cl)cc3)CC2)c2cc(F)ccc21 | 748 nM | 55.4 nM | 110 nM |  |
| O=C(c1ccnc(Cl)c1)N1CC2(CCN(C/C=C/c3ccc(Cl)cc3)CC2)c2cc(F)ccc21 | 1190 nM | 137 nM | 153 nM | Active |
| O=C(c1ccc(Br)nc1)N1CC2(CCN(C/C=C/c3ccc(Cl)cc3)CC2)c2cc(F)ccc21 | 60.1 nM | 179 nM | 39.2 nM |  |
| O=C(c1ccc(F)nc1)N1CC2(CCN(C/C=C/c3ccc(Cl)cc3)CC2)c2cc(F)ccc21 | > 10000 nM | 282 nM | 376 nM |  |
| O=C(c1ccc(F)cc1)N1CC2(CCN(C/C=C/c3ccc(Cl)cc3)CC2)c2cc(F)ccc21 | 1200 nM | 293 nM | 243 nM |  |
| O=C(OCCF)N1CC2(CCN(C/C=C/c3ccc(Cl)cc3)CC2)c2cc(F)ccc21 | 1520 nM | 44.1 nM | 328 nM |  |
